# From patent publication US11865126B2, “Method for treating anxiety disorders, headache disorders, and eating disorders with psilocybin” (priority 2019, dated 2024)
# What was measured:
# [1] = tested on: CCK-4-treated rats; assay: Elevated plus maze (EPM) after CCK-4 induced panic anxiety; assay type: in vivo, rat
# Protocol: This example examines the effects of psilocybin on induced panic anxiety. The elevated plus maze (EPM) is a widely used behavioral assay for rodents to assess anti-panic or anti-anxiety effects of pharmacological agents. Briefly, rodents are placed at the junction of the four arms of the maze, facing an open arm, and entries/duration in each arm are recorded over a period of time. An increase in open arm activity reflects anti-anxiety behavior (Walf et al., Nature Protocols, 2007).
# Panic anxiety can be induced in rodents through administration of panicogenic drugs such as cholecystokinin tetrapeptide (CCK-4). Peripheral administration of CCK-4 leads to an anxiogenic-like action in the EPM model of anxiety in rats. The anxiogenic effect of CCK-4 can be antagonized by benzodiazepine (e.g., diazepam) treatment.
# Animal handling was performed on a daily basis starting 1 week before the EPM assay. CCK-4 was prepared in saline at the dosage volume of 1 mL/kg and was intraperitoneally administered to the rats 30 min before implementation of the EPM test resulting in a CCK-4 dose of 0.2 mg/kg. CCK-4 was administered to all treatment groups except for the vehicle control (saline). Treatment groups for this study are shown below in Table 33. The EPM assay was performed 2 hours, and 24 hours following administration of psilocybin, and 1 hour after administration of diazepam.
# The apparatus used in the EPM assay was a PVC maze covered with Plexiglas and subdivided into four equal exploratory arms (21×8 cm). All arms were interconnected by a small platform (8×8 cm). The apparatus was placed 59 cm above the floor. Two arms were open and two arms were closed with walls (height: 21 cm).
# After the appropriate pre-treatment time, the rat was placed on the platform opposite a closed arm. The number of entries and the time spent in each arm were recorded during a 5 min period. The animal was considered as entered in an arm when it placed four paws in the arm. During the trial, animal handling and the visibility of the operator was minimized as much as possible.
# The results were analyzed by analysis of variance (ANOVA). Fisher's PLSD was used for pairwise comparisons and p value s 0.05 were considered significant.
# [2] = tested on: female Wistar rats; assay: Binge eating model: chow, chocolate and total food intake
# [3] = 0.2 mg/kg i.p., 30 min before EPM
# [4] = positive control, 1 hour after administration
smiles,measurement,setting,value
"CSCC[C@H](NC(=O)[C@@H](N)Cc1c[nH]c2ccccc12)C(=O)N[C@@H](CC(=O)O)C(=O)N[C@@H](Cc1ccccc1)C(N)=O [CCK-4, cholecystokinin tetrapeptide]",Number of entries into the open arm vs saline alone,[1]; [3],significantly reduced
same,Time spent in the open arm vs saline alone,[1]; [3],significantly reduced
"CN1C(=O)CN=C(c2ccccc2)c2cc(Cl)ccc21 [Diazepam, diazepam]",Number of entries into the open arms vs CCK-4 alone,[1]; [4],significant increase
same,Time spent in the open arms vs CCK-4 alone,[1]; [4],significant increase
"C[C@@H](Cc1ccccc1)NC(=O)[C@@H](N)CCCCN [LDX, lisdexamfetamine]",Chocolate intake during binging session vs vehicle/binge,"[2]; 0.8 mg/kg daily PO, 1 hour",significantly reduced chocolate eating
same,Food intake over a 24 hour period,"[2]; Day 1, 0.8 mg/kg daily PO",significantly reduced
